What is called IC50 is the point on the concentration scale where inhibition reaches its midpoint. By melting point is commonly meant the temperature, or range, at which the solid turns liquid.

Consider 24 compounds from patent US7829560B2, “1,4-disubstituted naphthalenes as inhibitors of P38 MAP kinase” (Arqule, Inc., priority 2004, dated 2010).

The target of one data set is T1, p38α (Homo sapiens, UniProt Q16539).
T1 construct: p38 MAP Kinases are recombinant human full-length proteins with an amino-terminal GST fusion; GST (N); purchased Upstate Biotechnology Inc; host or cells: E. coli
T1 sequence (Q16539 whole entry, the tested form may be a part): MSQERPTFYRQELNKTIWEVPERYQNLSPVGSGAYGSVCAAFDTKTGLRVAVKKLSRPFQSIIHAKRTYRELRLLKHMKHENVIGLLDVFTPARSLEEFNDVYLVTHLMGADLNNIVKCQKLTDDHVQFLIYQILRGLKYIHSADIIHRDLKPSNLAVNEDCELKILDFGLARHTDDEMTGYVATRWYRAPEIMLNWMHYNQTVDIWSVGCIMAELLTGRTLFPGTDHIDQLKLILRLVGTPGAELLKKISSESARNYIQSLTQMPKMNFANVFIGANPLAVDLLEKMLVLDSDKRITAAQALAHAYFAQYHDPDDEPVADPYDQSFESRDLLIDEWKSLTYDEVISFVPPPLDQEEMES
Kind of data set: p38 MAP Kinase assay: inhibition of ATF2 phosphorylation, ELISA. In kind it is biochemical. Particulars: ATF2 phosphorylation; read-out: [ENZ] P38 ALPHA, IC50, ELISA. The method in brief:
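GST-tagged full-length human p38 MAP kinase with GST-ATF2 (aa 19–96; 1.25 μM) and 40 μM ATP in HEPES pH 7.5 buffer, without (Method I) or with (Method II) 1% human serum albumin. Compound pre-incubated 15 min at room temperature; reaction 30 min at 37 °C; ATF2 Thr69 phosphorylation measured by ELISA (A450).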
Background: ELISA stands for enzyme-linked immunosorbent assay.

Data set [1] deals with TNFα release from THP-1 cells. Kind of data set: Inhibition of TNFα release from LPS-stimulated THP-1 cells, ELISA. Format: cell-based. Conditions: Homo sapiens, THP-1, THP-1 cells, read-out: [CELL] THP-1, IC50, TNF ALPHA, ELISA. The method in brief: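 Human THP-1 monocytes, 10^6 cells/ml in RPMI with 10% FBS, no serum or 1% HSA, preincubated 30 min at 37 °C with compound (≤0.5% DMSO), then stimulated with 10 μg/ml LPS for 18 h. Supernatant TNFα measured by ELISA; IC50 from non-linear dose-response regression.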

The compound `O=C(Nc1ccc(Oc2ccnc(N3CCCC3)n2)c2ccccc12)c1cc(F)cc(N2CCOCC2)c1` [Compound B334, 3-Fluoro-5-morpholin-4-yl-N-{4-[(2-pyrrolidin-1-ylpyrimidin-4-yl)oxy]-1-naphthyl}benzamide] yielded a melting point of 205 to 207 °C. For the same compound, the IC50 at p38α is 8.2 nM. Besides, the IC50 in data set [1] was 276 nM.

The compound `O=C(Nc1ccc(OCCN2CCOCC2)c2ccccc12)c1cccc(-n2cccc2)c1` [Compound B57, N-[4-(2-Morpholin-4-yl-ethoxy)-naphthalen-1-yl]-3-pyrrol-1-yl-benzamide] had a melting point of 142 to 143 °C. Further, on p38α, the IC50 came to 1190 nM. For the same compound, the IC50 in data set [1] was 2650 nM.

The compound `O=C(Nc1ccc(Oc2ccnc(N3CCC4(CC3)OCCO4)n2)c2ccccc12)c1cc(F)cc(N2CCCCC2)c1` [Compound B378, N-(4-{[2-(1,4-Dioxa-8-azaspiro[4.5]dec-8-yl)pyrimidin-4-yl]oxy}-1-naphthyl)-3-fluoro-5-piperidin-1-ylbenzamide] showed a melting point of 195 to 196 °C. Besides, on p38α, the IC50 turned out to be 17.1 nM. In data set [1], the half-inhibitory concentration (IC50) came to 225 nM.

`Cc1ncsc1CCOc1ccc(NC(=O)c2cc(F)cc(N3CCCCC3)c2)c2ccccc12` [Compound B424, 3-Fluoro-N-{4-[2-(4-methyl-1,3-thiazol-5-yl)ethoxy]-1-naphthyl}-5-piperidin-1-ylbenzamide]: the melting point lay in the range of 221 to 222 °C. Further, on p38α, the IC50 came to 39.9 nM. Moreover, in data set [1], the IC50 came out at 2210 nM.

In turn, `O=C(Nc1ccc(Oc2ccnc(NCCN3CCCCC3)n2)c2ccccc12)c1cc(F)cc(N2CCOCC2)c1` [Compound B343, 3-Fluoro-5-morpholin-4-yl-N-[4-({2-[(2-piperidin-1-ylethyl)amino]pyrimidin-4-yl}oxy)-1-naphthyl]benzamide] came in with a melting point of 98 to 100 °C. Moreover, the IC50 at p38α stood at 15.2 nM. The IC50 in data set [1] came to 136 nM.

Consider `CN1CCCC1CCNc1nccc(Oc2ccc(NC(=O)c3cc(F)cc(N4CCCCC4)c3)c3ccccc23)n1` (stereo not drawn) [Compound B394, 3-Fluoro-N-{4-[(2-{[2-(1-methylpyrrolidin-2-yl)ethyl]amino}pyrimidin-4-yl)oxy]-1-naphthyl}-5-piperidin-1-ylbenzamide], for which the melting point is 112 to 114 °C. For the same compound, the IC50 at p38α was 0.7 nM. For the same compound, in data set [1], the IC50 came out at 10.8 nM.

`O=C(Nc1ccc(OCCCN2CCCC2=O)c2ccccc12)c1cc(F)cc(N2CCCCC2)c1` [Compound B182, 3-Fluoro-N-{4-[3-(2-oxopyrrolidin-1-yl)propoxy]-1-naphthyl}-5-piperidin-1-ylbenzamide] gave a melting point of 88 to 89 °C. Also, the IC50 at p38α came to 587 nM. In data set [1], the IC50 was greater than 10000 nM.

Compound `Cc1ncsc1CCOc1ccc(NC(=O)c2cc(F)cc(N3CCOCC3)c2)c2ccccc12` [Compound B231, 3-Fluoro-N-{4-[2-(4-methyl-1,3-thiazol-5-yl)ethoxy]-1-naphthyl}-5-morpholin-4-ylbenzamide] returned a melting point of 186 to 187 °C. The IC50 on p38α came to 27.7 nM. The IC50 in data set [1] stood at 193 nM.

As to `O=C(Nc1ccc(Oc2ccnc(N3CCC(F)(F)CC3)n2)c2ccccc12)c1cc(F)cc(N2CCCCC2)c1` [Compound B423, N-(4-{[2-(4,4-Difluoropiperidin-1-yl)pyrimidin-4-yl]oxy}-1-naphthyl)-3-fluoro-5-piperidin-1-ylbenzamide], the melting point lay within 172 to 174 °C. Moreover, the IC50 on p38α amounted to 111 nM. In addition, the IC50 in data set [1] amounted to 773 nM.

For the compound `O=C(Nc1ccc(Oc2ccnc(-n3ccnc3)n2)c2ccccc12)c1cc(F)cc(N2CCCCC2)c1` [Compound B379], the melting point is 175 to 176 °C. Further, on p38α, the IC50 worked out at 15.1 nM. The IC50 in data set [1] was determined as 530 nM.

As for `CSc1nccc(Oc2ccc(NC(=O)c3cc(F)cc(N4CCOCC4)c3)c3ccccc23)n1` [Compound B246, 3-Fluoro-N-(4-{[2-(methylthio)pyrimidin-4-yl]oxy}-1-naphthyl)-5-morpholin-4-ylbenzamide], the melting point lay within 189 to 190 °C. Also, at p38α, the IC50 was 40.2 nM. Besides, the IC50 in data set [1] is 69.4 nM.

`CC(C)N(C)c1nccc(Oc2ccc(NC(=O)c3cc(F)cc(N4CCOCC4)c3)c3ccccc23)n1` [Compound B322, 3-Fluoro-N-[4-({2-[isopropyl(methyl)amino]pyrimidin-4-yl}oxy)-1-naphthyl]-5-morpholin-4-ylbenzamide] yielded a melting point of 94 to 96 °C. In addition, the IC50 on p38α came out at 44.6 nM. Besides, the IC50 in data set [1] turned out to be 607 nM.

`CC1CCC(Nc2nccc(Oc3ccc(NC(=O)c4cc(F)cc(N5CCOCC5)c4)c4ccccc34)n2)CC1` (stereo not drawn) [Compound B337, 3-Fluoro-N-[4-({2-[(4-methylcyclohexyl)amino]pyrimidin-4-yl}oxy)-1-naphthyl]-5-morpholin-4-ylbenzamide] gave a melting point of 116 to 117 °C. Also, the IC50 at p38α is 33.3 nM. Moreover, the IC50 in data set [1] is 65.6 nM.

In turn, `O=C(Nc1ccc(Oc2ccnc(N3CCC(O)CC3)n2)c2ccccc12)c1cc(F)cc(N2CCCCC2)c1` [Compound B387, 3-Fluoro-N-(4-{[2-(4-hydroxypiperidin-1-yl)pyrimidin-4-yl]oxy}-1-naphthyl)-5-piperidin-1-ylbenzamide] yielded a melting point of 182 to 184 °C. Besides, the IC50 on p38α was found to be 5.7 nM. For the same compound, the IC50 in data set [1] turned out to be 309 nM.

`COC(CN(C)c1nccc(Oc2ccc(NC(=O)c3cc(F)cc(N4CCOCC4)c3)c3ccccc23)n1)OC` [Compound B351, N-[4-({2-[(2,2-Dimethoxyethyl)(methyl)amino]pyrimidin-4-yl}oxy)-1-naphthyl]-3-fluoro-5-morpholin-4-ylbenzamide] registered a melting point of 92 to 94 °C. For the same compound, the IC50 at p38α was found to be 27.1 nM. Besides, in data set [1], the IC50 amounted to 274 nM.

The compound `O=C(Nc1ccc(Oc2ccnc(N3CCCC(O)C3)n2)c2ccccc12)c1cc(F)cc(N2CCCCC2)c1` (stereo not drawn) [Compound B402, 3-Fluoro-N-(4-{[2-(3-hydroxypiperidin-1-yl)pyrimidin-4-yl]oxy}-1-naphthyl)-5-piperidin-1-ylbenzamide] returned a melting point of 93 to 95 °C. Further, at p38α, the IC50 turned out to be 14.6 nM. Moreover, the IC50 in data set [1] came out at 655 nM.

Take `O=C(Nc1ccc(OCCN2CCOCC2)c2ccccc12)c1cccc(N2CCCCC2)c1` [Compound B48, N-[4-(2-Morpholin-4-yl-ethoxy)-naphthalen-1-yl]-3-piperidin-1-yl-benzamide]: the melting point was in the range of 147 to 148 °C. On p38α, the IC50 is 464 nM. Moreover, the IC50 in data set [1] was 7650 nM.

In the case of `CN(C)[C@@H]1CCN(c2nccc(Oc3ccc(NC(=O)c4cc(F)cc(N5CCOCC5)c4)c4ccccc34)n2)C1` [Compound B342, N-[4-({2-[(3R)-3-(dimethylamino)pyrrolidin-1-yl]pyrimidin-4-yl}oxy)-1-naphthyl]-3-fluoro-5-morpholin-4-ylbenzamide], the melting point was 115 to 117 °C. For the same compound, the IC50 on p38α worked out at 22.3 nM. The IC50 in data set [1] is 61.5 nM.

Turning to `O=C(Nc1ccc(OCCN2CCOCC2)c2ccccc12)c1cc(F)cc(OC2CCCC2)c1` [Compound B225, 3-(Cyclopentyloxy)-5-fluoro-N-[4-(2-morpholin-4-ylethoxy)-1-naphthyl]benzamide], the melting point is 117 to 119 °C. Also, at p38α, the IC50 amounted to 439 nM. Further, the IC50 in data set [1] came out at 4090 nM.

Consider `CN1CCN(c2nccc(Oc3ccc(NC(=O)c4cc(F)cc(N5CCCCC5)c4)c4ccccc34)n2)CC1` [Compound B372, 3-Fluoro-N-(4-{[2-(4-methylpiperazin-1-yl)pyrimidin-4-yl]oxy}-1-naphthyl)-5-piperidin-1-ylbenzamide], for which the melting point was 182 to 184 °C. Moreover, at p38α, the IC50 is 8.4 nM. The IC50 in data set [1] amounted to 217 nM.

On to `CN(C(=N)N)c1nccc(Oc2ccc(NC(=O)c3cc(F)cc(N4CCOCC4)c3)c3ccccc23)n1` [Compound B367, N-[4-({2-[[amino(imino)methyl](methyl)amino]pyrimidin-4-yl}oxy)-1-naphthyl]-3-fluoro-5-morpholin-4-ylbenzamide], for which the melting point lay within 155 to 157 °C. In addition, the IC50 at p38α was determined as 18.2 nM. Besides, the IC50 in data set [1] is 649 nM.

Take `CC1CCCN1c1nccc(Oc2ccc(NC(=O)c3cc(F)cc(N4CCCCC4)c3)c3ccccc23)n1` (stereo not drawn) [Compound B404, 3-Fluoro-N-(4-{[2-(2-methylpyrrolidin-1-yl)pyrimidin-4-yl]oxy}-1-naphthyl)-5-piperidin-1-ylbenzamide]: the melting point lay within 93 to 94 °C. Moreover, the IC50 at p38α is 151 nM. In addition, in data set [1], the IC50 turned out to be 1120 nM.

As for `CC(=O)N1CCN(c2nccc(Oc3ccc(NC(=O)c4cc(F)cc(N5CCCCC5)c4)c4ccccc34)n2)CC1` [Compound B400, N-(4-{[2-(4-Acetylpiperazin-1-yl)pyrimidin-4-yl]oxy}-1-naphthyl)-3-fluoro-5-piperidin-1-ylbenzamide], the melting point fell in the range of 102 to 104 °C. In addition, the IC50 on p38α came out at 7.4 nM. The IC50 in data set [1] is 565 nM.

Turning to `CC1CCN(c2cc(F)cc(C(=O)Nc3ccc(OCc4n[nH]c(=O)n4-c4ccccc4)c4ccccc34)c2)CC1` [Compound B263, 3-Fluoro-5-(4-methyl-piperidin-1-yl)-N-[4-(5-oxo-4-phenyl-4,5-dihydro-1H-[1,2,4]triazol-3-ylmethoxy)-naphthalen-1-yl]-benzamide], the melting point was 140 to 143 °C. Moreover, on p38α, the IC50 came out at 5080 nM. Besides, the IC50 in data set [1] turned out to be 4260 nM.
